Test results from ChEMBL document CHEMBL3352427, “Rational design of the first difluorostatone-based PfSUB1 inhibitors” (Bioorg Med Chem Lett, 2014).
Starred links: 1 amine or outer side, 2 acyl side, 3 side chain; linkers in the order of their positions; H or OH if unused. Non-standard residues stand in square brackets, D forms with d. Residues, ends and D or L forms follow the SMILES beside them. *: point of attachment. X1 = C[C@H](N[*:1])C(=O)C(F)(F)C(=O)[*:2]; X2 = C[C@H](N[*:1])C(O)C(F)(F)C(=O)[*:2]; Cbz = O=C(OCc1ccccc1)*; OBn = c1ccc(CO*)cc1; Bn = c1ccc(C*)cc1; βAla = NCCC(=O)O

Columns and labels:
[1] = target: T1, Subtilisin-like protease 1 (Plasmodium falciparum, UniProt O61142); assay: Inhibition of Plasmodium falciparum serine protease subtilisin-like protease 1by fluorimetric assay
T1 sequence (O61142 whole entry): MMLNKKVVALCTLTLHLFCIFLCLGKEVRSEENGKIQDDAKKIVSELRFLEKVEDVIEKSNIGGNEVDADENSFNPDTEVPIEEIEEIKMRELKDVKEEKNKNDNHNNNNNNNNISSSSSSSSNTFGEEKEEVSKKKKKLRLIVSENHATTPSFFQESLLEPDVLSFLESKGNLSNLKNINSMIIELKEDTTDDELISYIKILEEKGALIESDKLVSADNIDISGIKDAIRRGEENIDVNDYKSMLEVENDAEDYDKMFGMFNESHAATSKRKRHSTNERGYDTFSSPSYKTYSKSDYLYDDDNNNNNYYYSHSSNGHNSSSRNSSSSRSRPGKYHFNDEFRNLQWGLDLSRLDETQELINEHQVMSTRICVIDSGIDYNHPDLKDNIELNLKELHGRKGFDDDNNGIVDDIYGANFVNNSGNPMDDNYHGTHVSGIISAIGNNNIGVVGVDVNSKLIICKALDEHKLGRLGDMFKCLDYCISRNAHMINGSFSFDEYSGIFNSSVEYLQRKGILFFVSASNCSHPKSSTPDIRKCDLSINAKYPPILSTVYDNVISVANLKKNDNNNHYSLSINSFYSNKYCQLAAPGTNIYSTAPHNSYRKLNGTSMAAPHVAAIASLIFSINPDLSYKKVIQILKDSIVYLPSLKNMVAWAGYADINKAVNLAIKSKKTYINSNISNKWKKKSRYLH

[2] = target: T2, Subtilisin-like protease 1 (Plasmodium falciparum) (UniProt O61142); assay: Inhibition of Plasmodium falciparum serine protease subtilisin-like protease 1 at 100 uM by fluorimetric assay
T2 sequence (whole entry): T1 sequence (O61142 whole entry)

Compound | IC50 [1] | inhibition [2]
CC[C@H](C)[C@H](NC(=O)[C@H](CCCCN)NC(C)=O)C(=O)N[C@H](C(=O)N[C@@H](C)C(=O)N[C@@H](C)C(=O)C(F)(F)C(=O)NCCC(=O)O)[C@@H](C)O (HELM PEPTIDE1{[ac].K.I.T.A.[C[C@H](N[*:1])C(=O)C(F)(F)C(=O)[*:2]].[bAla]}$$$$V2.0) | 60 µM | 63%
CC[C@H](C)[C@H](NC(=O)[C@H](CCCCNC(=O)OCc1ccccc1)NC(C)=O)C(=O)N[C@H](C(=O)N[C@@H](C)C(=O)N[C@@H](C)C(=O)C(F)(F)C(=O)NCCC(=O)OCc1ccccc1)[C@@H](C)OCc1ccccc1 (Ac-K(Cbz)IT(Bn)A[X1][βAla]-OBn) |  | 14%
CC[C@H](C)[C@H](NC(=O)[C@H](CCCCN)NC(C)=O)C(=O)N[C@H](C(=O)N[C@@H](C)C(=O)N[C@@H](C)C(=O)C(F)(F)C(=O)NCC(=O)O)[C@@H](C)O (HELM PEPTIDE1{[ac].K.I.T.A.[C[C@H](N[*:1])C(=O)C(F)(F)C(=O)[*:2]].G}$$$$V2.0) | 0.6 µM | 100%
CC[C@H](C)[C@H](NC(C)=O)C(=O)N[C@H](C(=O)N[C@@H](C)C(=O)N[C@@H](C)C(=O)C(F)(F)C(=O)NCC(=O)OCc1ccccc1)[C@@H](C)OCc1ccccc1 (Ac-IT(Bn)A[X1]G-OBn) | 33 µM | 59%
CC(=O)N[C@H](C(=O)N[C@@H](C)C(=O)N[C@@H](C)C(=O)C(F)(F)C(=O)NCC(=O)O)[C@@H](C)O |  | 6%
CC[C@H](C)[C@H](NC(C)=O)C(=O)N[C@H](C(=O)N[C@@H](C)C(=O)N[C@@H](C)C(=O)C(F)(F)C(=O)NCC(=O)O)[C@@H](C)O (HELM PEPTIDE1{[ac].I.T.A.[C[C@H](N[*:1])C(=O)C(F)(F)C(=O)[*:2]].G}$$$$V2.0) | 0.6 µM | 99%
CC[C@H](C)[C@H](NC(C)=O)C(=O)N[C@H](C(=O)N[C@@H](C)C(=O)N[C@@H](C)C(O)C(F)(F)C(=O)NCC(=O)OCc1ccccc1)[C@@H](C)OCc1ccccc1 (mixture of isomers) |  | 0%
CC[C@H](C)[C@H](NC(=O)[C@H](CCCCNC(=O)OCc1ccccc1)NC(C)=O)C(=O)N[C@H](C(=O)N[C@@H](C)C(=O)N[C@@H](C)C(=O)C(F)(F)C(=O)NCC(=O)OCc1ccccc1)[C@@H](C)OCc1ccccc1 (Ac-K(Cbz)IT(Bn)A[X1]G-OBn) | 5 µM | 71%
CC[C@H](C)[C@H](NC(=O)[C@H](CCCCNC(=O)OCc1ccccc1)NC(C)=O)C(=O)N[C@H](C(=O)N[C@@H](C)C(=O)N[C@@H](C)C(O)C(F)(F)C(=O)NCC(=O)OCc1ccccc1)[C@@H](C)OCc1ccccc1 (some centres undefined) (Ac-K(Cbz)IT(Bn)A[X2]G-OBn) |  | 3%
